ChEMBL document CHEMBL4800722, “Data for DCP probe BI 605906” (2021)

Columns and labels:
[1] = molecular target: Serotonin 3 (5-HT3) receptor (Homo sapiens) (UniProt P46098+A5X5Y0+O95264+Q70Z44+Q8WXA8); assay: 5HT3/HU Eurofins SafetyScreen44 (BI); format: protein-complex assay; conditions: Compound concentration 10.0 uM
[2] = molecular target: Phosphodiesterase 3 (Homo sapiens) (UniProt Q14432+Q13370); assay: PDE-III/HU Eurofins SafetyScreen44 (BI); format: protein assay; conditions: Compound concentration 10.0 uM
[3] = molecular target: Thromboxane-A synthase (Homo sapiens) (UniProt P24557); assay: THRO SYN(HU) Eurofins SafetyScreen44 (BI); conditions: Compound concentration 10.0 uM
[4] = molecular target: CDK17/Cyclin-Y (Homo sapiens) (UniProt Q00537+Q8ND76); assay: CDK17/CYCLIN Y Invitrogen Lab (UK) kinase screen (BI); format: protein-complex assay; conditions: Compound concentration 1.0 uM
[5] = molecular target: Serine/threonine-protein kinase N2 (Homo sapiens) (UniProt Q16513); assay: PKN2 Invitrogen Lab (UK) kinase screen (BI); conditions: Compound concentration 1.0 uM
[6] = molecular target: Dual specificity protein kinase CLK3 (Homo sapiens) (UniProt P49761); assay: CLK3 Invitrogen Lab (UK) kinase screen (BI); conditions: Compound concentration 1.0 uM
[7] = molecular target: Dual specificity protein kinase CLK4 (Homo sapiens) (UniProt Q9HAZ1); assay: CLK4 Invitrogen Lab (UK) kinase screen (BI); conditions: Compound concentration 1.0 uM
[8] = molecular target: PAS domain-containing serine/threonine-protein kinase (Homo sapiens) (UniProt Q96RG2); assay: PASK Invitrogen Lab (UK) kinase screen (BI); conditions: Compound concentration 1.0 uM
[9] = molecular target: Calcium/calmodulin-dependent protein kinase type 1 (Homo sapiens) (UniProt Q14012); assay: CAMK1 DUNDEE kinase screen (BI); conditions: Compound concentration 10.0 uM
[10] = molecular target: Cyclin-dependent kinase 2/cyclin A (Homo sapiens) (UniProt P24941+P20248+P78396); assay: CDK2/CYCLINA DUNDEE kinase screen (BI); format: protein-complex assay; conditions: Compound concentration 10.0 uM
[11] = molecular target: T1, Serine/threonine-protein kinase Chk1 (Homo sapiens) (UniProt O14757); assay: CHK1 DUNDEE kinase screen (BI); conditions: Compound concentration 10.0 uM
T1 sequence (whole entry): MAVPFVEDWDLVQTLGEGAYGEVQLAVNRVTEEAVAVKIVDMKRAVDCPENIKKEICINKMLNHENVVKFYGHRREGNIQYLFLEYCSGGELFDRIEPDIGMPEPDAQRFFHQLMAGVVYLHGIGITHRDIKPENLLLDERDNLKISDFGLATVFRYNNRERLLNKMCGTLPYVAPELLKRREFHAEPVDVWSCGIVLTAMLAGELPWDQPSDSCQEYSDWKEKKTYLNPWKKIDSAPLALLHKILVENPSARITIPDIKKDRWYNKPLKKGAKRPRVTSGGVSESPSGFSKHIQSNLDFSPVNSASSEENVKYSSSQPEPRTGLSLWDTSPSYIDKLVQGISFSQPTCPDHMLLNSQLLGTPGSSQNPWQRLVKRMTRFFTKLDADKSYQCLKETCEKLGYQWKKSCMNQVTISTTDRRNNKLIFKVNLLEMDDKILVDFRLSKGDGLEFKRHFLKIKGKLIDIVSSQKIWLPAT

[12] = molecular target: Dual specificity mitogen-activated protein kinase kinase 1 (Homo sapiens) (UniProt Q02750); assay: MKK1 DUNDEE kinase screen (BI); conditions: Oryctolagus cuniculus; Compound concentration 10.0 uM
[13] = molecular target: Ribosomal protein S6 kinase beta-1 (Homo sapiens) (UniProt P23443); assay: S6K1 DUNDEE kinase screen (BI); conditions: Compound concentration 10.0 uM
[14] = molecular target: Proto-oncogene tyrosine-protein kinase Src (Homo sapiens) (UniProt P12931); assay: SRC DUNDEE kinase screen (BI); conditions: Gallus gallus; Compound concentration 10.0 uM
[15] = molecular target: Sodium-dependent dopamine transporter (Homo sapiens, UniProt Q01959); conditions: Compound concentration 10.0 uM
[16] = molecular target: Nitric oxide synthase 3 (Bos taurus) (UniProt P29473); conditions: Compound concentration 10.0 uM
[17] = molecular target: Leukotriene C4 synthase (Cavia porcellus) (UniProt A6XA80); conditions: Compound concentration 10.0 uM
[18] = molecular target: AMP-activated protein kinase alpha-1/beta-2/gamma-3 (Homo sapiens) (UniProt O43741+Q13131+Q9UGI9); conditions: Compound concentration 1.0 uM
[19] = molecular target: Serine/threonine-protein kinase NIM1 (Homo sapiens) (UniProt Q8IY84); conditions: Compound concentration 1.0 uM
[20] = molecular target: Phosphatidylinositol 4-kinase type 2-alpha (Homo sapiens) (UniProt Q9BTU6); conditions: Compound concentration 1.0 uM
[21] = molecular target: Serine/threonine-protein kinase SBK1 (Homo sapiens) (UniProt Q52WX2); conditions: Compound concentration 1.0 uM
[22] = molecular target: Dual specificity testis-specific protein kinase 2 (Homo sapiens) (UniProt Q96S53); conditions: Compound concentration 1.0 uM
[23] = molecular target: Cyclin-dependent kinase 1/cyclin B (Homo sapiens) (UniProt P06493+P14635+Q8WWL7+O95067)
[24] = molecular target: Cyclin-dependent kinase 5/CDK5 activator 1 (Homo sapiens) (UniProt Q00535+Q15078); conditions: Compound concentration 1.0 uM
[25] = molecular target: Cyclin-dependent kinase 7 (Homo sapiens) (UniProt P50613); conditions: Compound concentration 1.0 uM
[26] = molecular target: Casein kinase I isoform alpha (Homo sapiens) (UniProt P48729); conditions: Compound concentration 1.0 uM
[27] = molecular target: Serine/threonine-protein kinase DCLK2 (Homo sapiens) (UniProt Q8N568); conditions: Compound concentration 1.0 uM
[28] = molecular target: Dual specificity tyrosine-phosphorylation-regulated kinase 3 (Homo sapiens) (UniProt O43781); conditions: Compound concentration 1.0 uM
[29] = molecular target: Dual specificity tyrosine-phosphorylation-regulated kinase 4 (Homo sapiens) (UniProt Q9NR20); conditions: Compound concentration 1.0 uM
[30] = molecular target: Serine/threonine-protein kinase MARK2 (Homo sapiens) (UniProt Q7KZI7)
[31] = molecular target: Serine/threonine-protein kinase Nek1 (Homo sapiens) (UniProt Q96PY6)
[32] = molecular target: Serine/threonine-protein kinase Nek4 (Homo sapiens) (UniProt P51957); conditions: Compound concentration 1.0 uM
[33] = molecular target: BDNF/NT-3 growth factors receptor (Homo sapiens) (UniProt Q16620); conditions: Compound concentration 1.0 uM
[34] = molecular target: Serine/threonine-protein kinase pim-1 (Homo sapiens) (UniProt P11309)
[35] = molecular target: Protein-tyrosine kinase 6 (Homo sapiens) (UniProt Q13882); conditions: Compound concentration 1.0 uM
[36] = molecular target: Lymphokine-activated killer T-cell-originated protein kinase (Homo sapiens) (UniProt Q96KB5); conditions: Compound concentration 10.0 uM

Chain of Serine/threonine-protein kinase pim-1 (Homo sapiens) (P11309 whole entry, looked up): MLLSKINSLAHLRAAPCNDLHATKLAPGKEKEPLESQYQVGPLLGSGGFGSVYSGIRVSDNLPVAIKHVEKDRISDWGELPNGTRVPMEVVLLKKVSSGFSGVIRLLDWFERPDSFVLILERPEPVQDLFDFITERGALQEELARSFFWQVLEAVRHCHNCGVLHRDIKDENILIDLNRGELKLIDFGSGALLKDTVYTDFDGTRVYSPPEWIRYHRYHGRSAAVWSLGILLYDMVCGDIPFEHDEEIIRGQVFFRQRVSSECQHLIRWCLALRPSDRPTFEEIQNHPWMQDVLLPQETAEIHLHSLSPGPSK
Chain of Serine/threonine-protein kinase MARK2 (Homo sapiens) (Q7KZI7 whole entry): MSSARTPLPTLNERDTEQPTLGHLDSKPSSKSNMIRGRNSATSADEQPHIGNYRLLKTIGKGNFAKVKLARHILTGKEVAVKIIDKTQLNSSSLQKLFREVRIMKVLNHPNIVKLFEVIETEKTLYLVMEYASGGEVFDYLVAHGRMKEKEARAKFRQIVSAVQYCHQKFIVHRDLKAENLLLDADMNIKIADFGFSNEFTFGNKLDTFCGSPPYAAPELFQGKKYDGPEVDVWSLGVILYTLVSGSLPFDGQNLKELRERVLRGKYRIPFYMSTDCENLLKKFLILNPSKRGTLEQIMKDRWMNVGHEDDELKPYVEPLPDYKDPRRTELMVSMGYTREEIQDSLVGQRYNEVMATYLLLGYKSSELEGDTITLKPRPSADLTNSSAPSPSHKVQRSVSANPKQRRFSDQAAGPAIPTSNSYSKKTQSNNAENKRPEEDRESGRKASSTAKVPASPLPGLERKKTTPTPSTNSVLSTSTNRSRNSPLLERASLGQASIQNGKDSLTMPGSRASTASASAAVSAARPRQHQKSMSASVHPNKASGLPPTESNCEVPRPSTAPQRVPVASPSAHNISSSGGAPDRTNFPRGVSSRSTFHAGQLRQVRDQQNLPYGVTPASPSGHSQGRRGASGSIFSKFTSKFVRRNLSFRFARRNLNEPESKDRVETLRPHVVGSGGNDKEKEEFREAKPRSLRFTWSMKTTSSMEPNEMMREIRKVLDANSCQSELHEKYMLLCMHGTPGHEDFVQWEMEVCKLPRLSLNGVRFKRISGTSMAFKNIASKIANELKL
Chain of Serine/threonine-protein kinase Nek1 (Homo sapiens) (Q96PY6 whole entry): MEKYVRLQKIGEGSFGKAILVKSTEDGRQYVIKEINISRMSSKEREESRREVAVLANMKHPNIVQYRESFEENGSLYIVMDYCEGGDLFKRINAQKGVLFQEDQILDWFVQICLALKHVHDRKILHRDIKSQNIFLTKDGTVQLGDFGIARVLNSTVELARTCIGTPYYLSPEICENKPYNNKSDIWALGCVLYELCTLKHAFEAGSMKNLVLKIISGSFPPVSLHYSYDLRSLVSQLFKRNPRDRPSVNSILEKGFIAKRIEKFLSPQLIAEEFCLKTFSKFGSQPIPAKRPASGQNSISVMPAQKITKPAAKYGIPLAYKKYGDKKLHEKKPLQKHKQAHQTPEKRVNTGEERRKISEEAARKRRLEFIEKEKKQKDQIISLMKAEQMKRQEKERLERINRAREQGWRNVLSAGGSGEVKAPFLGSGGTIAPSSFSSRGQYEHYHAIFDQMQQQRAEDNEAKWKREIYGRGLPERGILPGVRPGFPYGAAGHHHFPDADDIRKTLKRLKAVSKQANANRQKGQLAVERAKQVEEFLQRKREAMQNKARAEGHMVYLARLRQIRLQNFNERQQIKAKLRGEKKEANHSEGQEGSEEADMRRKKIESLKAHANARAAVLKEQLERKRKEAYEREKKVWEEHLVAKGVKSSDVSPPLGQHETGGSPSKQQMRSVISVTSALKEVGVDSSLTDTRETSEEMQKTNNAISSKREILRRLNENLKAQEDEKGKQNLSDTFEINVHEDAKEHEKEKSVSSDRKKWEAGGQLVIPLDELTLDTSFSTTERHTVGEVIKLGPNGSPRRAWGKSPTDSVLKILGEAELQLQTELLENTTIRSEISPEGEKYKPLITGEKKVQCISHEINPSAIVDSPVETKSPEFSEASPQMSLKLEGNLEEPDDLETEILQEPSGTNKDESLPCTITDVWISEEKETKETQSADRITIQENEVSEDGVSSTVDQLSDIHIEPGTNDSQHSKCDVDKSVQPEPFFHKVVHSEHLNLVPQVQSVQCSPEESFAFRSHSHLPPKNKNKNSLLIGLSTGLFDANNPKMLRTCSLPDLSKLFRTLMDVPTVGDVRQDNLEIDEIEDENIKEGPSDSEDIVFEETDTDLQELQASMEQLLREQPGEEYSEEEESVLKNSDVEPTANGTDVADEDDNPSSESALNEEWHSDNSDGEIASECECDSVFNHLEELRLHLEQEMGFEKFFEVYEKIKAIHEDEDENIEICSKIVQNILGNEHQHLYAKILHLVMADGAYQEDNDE
Chain of Proto-oncogene tyrosine-protein kinase Src (Homo sapiens) (P12931 2-536 limits assumed): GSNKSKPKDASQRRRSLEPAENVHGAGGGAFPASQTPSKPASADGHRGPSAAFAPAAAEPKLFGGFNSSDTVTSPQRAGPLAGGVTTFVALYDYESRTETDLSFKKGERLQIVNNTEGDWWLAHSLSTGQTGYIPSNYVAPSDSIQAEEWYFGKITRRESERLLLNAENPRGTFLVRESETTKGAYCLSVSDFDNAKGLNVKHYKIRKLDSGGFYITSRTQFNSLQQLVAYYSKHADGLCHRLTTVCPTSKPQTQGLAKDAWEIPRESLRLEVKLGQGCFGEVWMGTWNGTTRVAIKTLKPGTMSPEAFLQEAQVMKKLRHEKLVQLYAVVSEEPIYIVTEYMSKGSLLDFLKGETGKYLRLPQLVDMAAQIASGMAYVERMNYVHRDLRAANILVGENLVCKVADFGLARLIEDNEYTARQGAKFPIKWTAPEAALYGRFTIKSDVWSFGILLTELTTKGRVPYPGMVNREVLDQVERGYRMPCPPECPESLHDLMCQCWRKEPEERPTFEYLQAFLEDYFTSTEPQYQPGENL
Chain of Protein-tyrosine kinase 6 (Homo sapiens) (Q13882 whole entry, looked up): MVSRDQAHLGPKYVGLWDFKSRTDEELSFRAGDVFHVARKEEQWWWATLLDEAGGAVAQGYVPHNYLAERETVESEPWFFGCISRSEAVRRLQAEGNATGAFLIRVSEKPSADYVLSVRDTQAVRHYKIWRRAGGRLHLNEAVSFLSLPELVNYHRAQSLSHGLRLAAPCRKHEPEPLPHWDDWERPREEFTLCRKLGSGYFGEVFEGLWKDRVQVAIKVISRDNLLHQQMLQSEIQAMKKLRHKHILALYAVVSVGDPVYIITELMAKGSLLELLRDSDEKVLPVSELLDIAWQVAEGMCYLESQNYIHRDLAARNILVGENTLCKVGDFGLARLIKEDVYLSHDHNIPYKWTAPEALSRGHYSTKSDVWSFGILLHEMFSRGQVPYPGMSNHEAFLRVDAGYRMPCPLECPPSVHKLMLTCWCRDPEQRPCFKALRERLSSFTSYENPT
Chain of Sodium-dependent dopamine transporter (Q01959 whole entry): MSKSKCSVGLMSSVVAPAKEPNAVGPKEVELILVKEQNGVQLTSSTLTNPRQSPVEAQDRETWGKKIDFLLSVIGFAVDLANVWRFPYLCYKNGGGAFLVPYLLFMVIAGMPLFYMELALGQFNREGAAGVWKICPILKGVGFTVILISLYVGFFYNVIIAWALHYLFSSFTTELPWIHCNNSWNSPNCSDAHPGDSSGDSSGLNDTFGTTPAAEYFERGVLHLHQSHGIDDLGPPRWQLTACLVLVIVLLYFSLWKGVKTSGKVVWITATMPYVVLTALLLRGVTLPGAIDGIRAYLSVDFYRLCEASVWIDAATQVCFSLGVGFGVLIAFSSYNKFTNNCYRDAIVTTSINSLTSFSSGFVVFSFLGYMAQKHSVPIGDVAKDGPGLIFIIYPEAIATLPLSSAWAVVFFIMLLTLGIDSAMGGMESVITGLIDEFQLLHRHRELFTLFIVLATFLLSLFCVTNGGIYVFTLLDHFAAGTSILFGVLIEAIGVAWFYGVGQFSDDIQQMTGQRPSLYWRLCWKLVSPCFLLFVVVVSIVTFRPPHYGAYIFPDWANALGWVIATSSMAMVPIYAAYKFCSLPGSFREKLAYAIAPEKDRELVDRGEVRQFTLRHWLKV
Chain of Dual specificity protein kinase CLK4 (Homo sapiens) (Q9HAZ1 whole entry, looked up, the tested form may be a part): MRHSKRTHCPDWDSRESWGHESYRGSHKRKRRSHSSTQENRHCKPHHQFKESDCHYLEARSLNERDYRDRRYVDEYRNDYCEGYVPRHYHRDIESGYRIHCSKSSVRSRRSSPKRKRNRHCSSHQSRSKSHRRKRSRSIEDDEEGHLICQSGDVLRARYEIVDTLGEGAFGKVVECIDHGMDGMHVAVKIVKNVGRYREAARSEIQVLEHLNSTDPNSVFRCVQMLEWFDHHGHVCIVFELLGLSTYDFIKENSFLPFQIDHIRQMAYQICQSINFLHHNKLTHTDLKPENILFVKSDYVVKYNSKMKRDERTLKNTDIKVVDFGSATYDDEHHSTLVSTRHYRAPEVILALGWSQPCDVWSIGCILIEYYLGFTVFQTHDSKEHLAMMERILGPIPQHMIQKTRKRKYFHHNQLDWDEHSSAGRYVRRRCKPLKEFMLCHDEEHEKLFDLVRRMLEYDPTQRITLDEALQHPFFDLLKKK
Chain of Serine/threonine-protein kinase SBK1 (Homo sapiens) (Q52WX2 whole entry): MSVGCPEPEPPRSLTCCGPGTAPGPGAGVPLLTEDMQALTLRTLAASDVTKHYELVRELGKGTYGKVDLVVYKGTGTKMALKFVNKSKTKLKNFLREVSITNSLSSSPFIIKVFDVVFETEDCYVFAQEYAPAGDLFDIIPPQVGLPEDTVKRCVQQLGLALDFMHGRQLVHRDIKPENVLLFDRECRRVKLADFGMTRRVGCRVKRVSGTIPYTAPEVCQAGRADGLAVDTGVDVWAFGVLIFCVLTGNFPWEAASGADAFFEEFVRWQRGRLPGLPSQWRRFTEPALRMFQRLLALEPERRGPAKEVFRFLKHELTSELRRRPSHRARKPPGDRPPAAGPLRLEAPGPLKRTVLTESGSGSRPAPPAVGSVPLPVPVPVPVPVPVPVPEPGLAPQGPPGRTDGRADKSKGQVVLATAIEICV
Chain of Leukotriene C4 synthase (Cavia porcellus) (A6XA80 whole entry): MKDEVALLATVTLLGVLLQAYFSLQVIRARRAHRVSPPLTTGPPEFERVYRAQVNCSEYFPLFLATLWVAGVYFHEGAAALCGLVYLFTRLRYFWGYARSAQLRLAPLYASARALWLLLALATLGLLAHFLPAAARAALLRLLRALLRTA

CCC(F)(F)c1cc(N2CCC(S(C)(=O)=O)CC2)nc2sc(C(N)=O)c(N)c12 [BI-605906]
residual activity [1]: 84% | residual activity [2]: 31% | residual activity [3]: 86% | residual activity [4]: 88% | residual activity [5]: 86% | residual activity [6]: 102% | residual activity [7]: 69% | residual activity [8]: 106% | residual activity [9]: 78.4% | residual activity [10]: 78% | residual activity [11]: 90.2% | residual activity [12]: 19.3% | residual activity [13]: 56.3% | residual activity [14]: 73.8% | residual activity [15]: 105% | residual activity [16]: 100% | residual activity [17]: 93% | residual activity [18]: 91% | residual activity [19]: 93% | residual activity [20]: 92% | residual activity [21]: 98% | residual activity [22]: 90% | residual activity ([23]; Compound concentration 1.0 uM): 92% | residual activity ([23]; Compound concentration 10.0 uM): 94% | residual activity [24]: 97% | residual activity [25]: 99% | residual activity [26]: 98% | residual activity [27]: 101% | residual activity [28]: 92% | residual activity [29]: 97% | residual activity ([30]; Compound concentration 1.0 uM): 90% | residual activity ([30]; Compound concentration 10.0 uM): 87% | residual activity ([31]; Compound concentration 1.0 uM): 92% | residual activity ([31]; Compound concentration 10.0 uM): 30% | residual activity [32]: 89% | residual activity [33]: 95% | residual activity ([34]; Compound concentration 1.0 uM): 90% | residual activity ([34]; Compound concentration 10.0 uM): 99% | residual activity [35]: 98% | residual activity [36]: 100%
